Measurements: PubChem BioAssay (NCI)
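Where inhibition never reached the appropriate level, the endpoint shown equals the highest concentration tested. Otherwise, values were interpolated linearly from a five-concentration, 48-hour dose response in 96-well plates. Here, GI50 denotes the concentration required for 50% inhibition of growth. TGI: concentration producing complete growth inhibition.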

How the values were obtained:
Experiment in all cases: inhibition of tumour cell growth, NCI panel, 48 h
M14 melanoma = tested on: M14 melanoma
MOLT-4 leukemia = tested on: MOLT-4 leukemia
NCI-H522 lung = tested on: NCI-H522 lung
786-0 renal = tested on: 786-0 renal
OVCAR-5 ovarian = tested on: OVCAR-5 ovarian
OVCAR-3 ovarian = tested on: OVCAR-3 ovarian
HOP-92 NSCLC = tested on: HOP-92 NSCLC
NCI/ADR-RES ovarian = tested on: NCI/ADR-RES ovarian
SF-295 CNS = tested on: SF-295 CNS
NCI-H226 lung = tested on: NCI-H226 lung

SMILES	GI50 (M14 melanoma) [µM]	TGI (M14 melanoma) [µM]	GI50 (MOLT-4 leukemia) [µM]	TGI (MOLT-4 leukemia) [µM]	GI50 (NCI-H522 lung) [µM]	TGI (NCI-H522 lung) [µM]	GI50 (786-0 renal) [µM]	TGI (786-0 renal) [µM]	GI50 (OVCAR-5 ovarian) [µM]	TGI (OVCAR-5 ovarian) [µM]	GI50 (OVCAR-3 ovarian) [µM]	TGI (OVCAR-3 ovarian) [µM]	GI50 (HOP-92 NSCLC) [µM]	TGI (HOP-92 NSCLC) [µM]	GI50 (NCI/ADR-RES ovarian) [µM]	TGI (NCI/ADR-RES ovarian) [µM]	GI50 (SF-295 CNS) [µM]	TGI (SF-295 CNS) [µM]	GI50 (NCI-H226 lung) [µM]	TGI (NCI-H226 lung) [µM]
CCCCC[C@H]1C/C=C2/C(=O)C(Cl)=C[C@@H]2C/C=C\CCCC(=O)O1	0.422	0.999	0.117	2.98	0.335	0.755	0.47	0.888	0.649	1.4	0.366	1.26	0.587	1.38	0.317	1.64	0.563	1.53	0.544	1.5
C=C1C(=O)O[C@H]2[C@H]1CC/C(COC(=O)/C=C\C(=O)NCc1ccc(Cn3c(=O)sn(-c4ccc(Cl)cc4)c3=O)cc1)=C\CC[C@@]1(C)O[C@@H]21	0.639	1.48	0.499	3.27	0.632	1.55	0.658	1.39	0.834	1.75	0.223	0.821	0.569	1.35	1.25	5.06	3.11	8.8	1.24	4.28
CCOC(=O)CCSC1=CC(=O)c2nc3ccccc3c3ccnc1c23	11.3	30.1	7.31	> 100	17.4	43	17.5	39.3	27.5	91	12.6	37	25.8	62.6	32.8	> 100	17.1	44.3	21.8	73.8
CC(C)(C)OC(=O)N1Cc2cc3ccccc3nc2C1CO (stereo not given)	> 100	> 100	> 100	> 100	> 100	> 100	> 100	> 100	> 100	> 100	> 100	> 100	57.8	> 100	> 100	> 100	> 100	> 100	> 100	> 100
Cc1ccc(C2C3Cc4ccccc4C3=NN2c2ccc(S(=O)(=O)NC(=O)Nc3ccccc3)cc2)cc1 (stereo not given)	17	40.3	8.88	34.4	10.6	28.7	12.8	36.5	14.5	30.5	14.7	36.5	14.3	28.2	14.7	38.8	12.8	33.6	15.9	49.2
